# Assay results: US20220204918A1, “CELL CULTURE MEDIA COMPRISING KETO ACIDS” (MERCK PATENT GMBH, priority 2019, published 2022)
# Structures can show the parent of a compound that is named as a salt.
# Key:
# [1] = Solubility in water at 25° C. (saturated solution, residual mass after infrared drying); format: physicochemical; settings: for Solubility 25° C. in g/kg (corresponding keto acid) / maximum solubilities obtained in water / Solubility (amino acid): water; for maximum solubilities obtained in water: separate experiments; for Solubility 25° C. in g/kg (corresponding keto acid) / Solubility (amino acid): 25° C.
# Description: After sedimentation, the solution was dried using infrared (120° C., 120 min) and the residual mass was determined in g/kg.
# [2] = FB culture with other keto acids replacing their amino acid in the feed; format: cell-based
# Text: Other keto acids have been tested as replacement for their respective amino acids in FB experiments. A very similar behavior compared to Ile and Leu was observed when Val was replaced by keto Val in the feed (FIG. 17). Indeed, similar VCD and titer were observed compared to the positive control whereas the feed depleted in Val leads to a drastic decrease in the VCD, as well as a very low titer after day 7. […] Due to the structural similarity to keto Ile and keto Leu, the effect of keto Val on overall feed concentration and feed stability is similar to the other branched chain keto acids. 6× higher solubility when compared to Val was confirmed in water.
# For phenylalanine (Phe) and its respective keto acid phenylpyruvate (FIG. 18), the amination reaction to build Phe in cell culture seemed to be slower than the amination reactions occurring for branched chain keto acids. […] Following that result, a condition where 2× the molar equivalent of Phe was used as a concentration of phenylpyruvate in the feed.
# [3] = physchem; settings: for solubility at 10 min: 25 °C, pH 7, aqueous with cosolvent or surfactant or cyclodextrin, thermodynamic from solid
# Description: Increasing amounts of the keto acids and salts thereof were added to a cell culture feed formulation (Cellvento® 4Feed, MilliporeSigma) depleted in Ile and Leu. Similarly, increasing amount of Ile and Leu were added to the same feed formulation as a control. The total concentration of this feed formulation was 125 g/L and the pH was 7.0+/−0.2. In small scale experiments, after each addition of either the amino acid or the keto acid, the feed was agitated for 10 mins and turbidity was measured. The experiments were performed at room temperature (25° C.).
# [4] = Feed stability: change in color, AUC of absorbance 300-600 nm over 90 days; format: physicochemical
# Description: The stability of a feed containing Ile and Leu (Cellvento® 4Feed) was compared to the stability of the same feed depleted in Ile/Leu and with supplementation of either keto Leu or keto Ile. The feeds were prepared according to the standard protocol. The final pH was 7.0+/−0.2 and the feeds were stored at 4° C. or RT protected or exposed to light. The change in color of the formulations were monitored during 90 days by measuring the absorbance in the range from 300 nm to 600 nm (intervals of 5 nm). Conditions were compared by calculating the area under the curve (AUC) over time (between D0 and D90) of the baseline corrected area under the curve of the absorbance scan (300 nm-600 nm).
# [5] = Feed stability: NH3 formed during 3 months storage (AUC of NH3 concentration); format: physicochemical; settings: for less ammonia produced compared to control: 4° C.; for reduced ammonia level compared to control: RT
# Description: Finally, the amount of ammonium ions formed during storage of the feed containing keto acids at 4° C. or RT was lower when compared to the feed containing the normal amino acids. To be able to evaluate the formation of the NH3 over the entire period of the stability study, the AUC of the NH3 concentration was calculated for the timeframe of 3 months to compare the conditions.
# [6] = test system: CHOK1GS suspension cell line expressing a human IgG1; assay: 17-days fed-batch process with keto acid replacing amino acid in the feed; format: cell-based; settings: for amount of NH3 produced compared to control: 17-days fed-batch
# Description: For cell culture experiments, a CHOK1GS suspension cell line expressing a human IgG1, was used. Cells were cultivated in quadruplicate in Cellvento 4CHO medium (Merck Darmstadt, Germany) using 50 mL spin tubes with a starting culture volume of 30 mL and a seeding density of 2×10^5 cells/mL. Incubation was carried out at 37° C., 5% CO2, 80% humidity and an agitation of 320 rpm. The keto acids were added in the Feed (4Feed depleted in Ile and leu) instead of their respective amino acids. The pH of all the feeds was neutral (pH 7.0+/−0.2). The positive control contained the normal amino acids whereas the negative control contained the feed depleted in the respective amino acid and without addition of keto acid. Feeding was carried out at days 3, 5, 7, 10 and 14 at the following v/v ratios (3, 3, 6, 3 and 3%). Glucose was quantified daily and adjusted to 6 g/L using a 400 g/L glucose solution. The experiment was repeated at least 3 times.
# The viable cell density (VCD) and viability were evaluated with a Vi-CELL XR (Beckman Coulter, Fullerton, Calif.). Metabolite concentrations were monitored using a Cedex Bio HT (Roche Diagnostics, Mannheim, Germany) based on spectrophotometric and turbidometric methods. Quantification of amino acids was carried out via UPLC after derivatization with the AccQ⋅TagUltra® reagent kit. Derivatization, chromatography and data analysis were carried out following the supplier recommendations (Waters, Milford, Mass.).
# The productivity per cell per day was calculated daily by dividing the titer by the corrected integral VCD to take into account the dilution resulting from feeding. The overall specific productivity was determined by calculating the slope from the linear regression between titer and corrected integral VCD.
# [7] = test system: CHOK1GS cell line; assay: Serial passaging and batch experiment in Leu/Ile depleted Cellvento 4CHO with keto acids; format: cell-based; settings: for initial keto acid concentration detected in form of the amino acid: day 3
# Text: To confirm that this is applicable in CHO systems, keto Leu or keto Ile were used as replacement for Leu and Ile respectively in a cell culture medium (Cellvento® 4CHO). A Leu/Ile depleted version of the formulation was produced and equimolar concentrations of keto Leu vs Leu and keto Ile vs Ile were used (FIG. 15). Cell growth and viability of a CHOK1GS cell line were monitored over several weeks in serial passaging experiments to make sure that the growth is not due to residual amounts of Leu or Ile. A batch experiment with a seeding density of 0.2 million cells/mL was designed and IgG production was measured over time. The production of the amino acids was followed with time using amino acids quantification in the spent medium.
# [8] = Feed stability: precipitation during storage; format: physicochemical
# Description: In addition, when using keto Leu instead of Leu in the feed, the precipitation of the feed was delayed. To observe precipitation, the 50 mL falcon tubes were turned back to see possible sedimentation on the bottom of the tube and pictures were taken. […] A complete inhibition of precipitation was not observed at RT exposed to light but the precipitation was delayed in the keto Leu condition. Whereas precipitation was observed starting at D49 for the control condition, initial precipitation appeared at D70 for the keto Leu condition.
# [9] = test system: CHODG44 cell line expressing an IgG1; assay: Fed-batch with keto Leu, CHODG44; format: cell-based
# [10] = test system: CHOK1GS cell line; assay: Batch experiments with higher seeding densities and different Leu/keto Leu ratios; format: cell-based
# Description: In a similar way, batch experiments with higher cell seeding densities were performed in media containing different ratios of Leu/keto Leu to understand which ratios are preferable when starting with higher cell densities (FIG. 16). The analytic used was the same as described above.
# Finally, batch experiments with higher cell densities were performed to determine whether keto Leu is readily available when starting with high seeding densities or if a minimum concentration of free leucine has to be present to support growth and productivity in these conditions. For this experiment, a CHOK1GS cell line was seeded at 0.3, 0.6 or 1.10^6 cells/mL in a medium containing 0, 25, 50, 75, or 100% of keto Leu, the rest being added in form of Leucine.
# [11] = Val replaced by keto Val in the feed
# [12] = batch, seeding density 0.2 million cells/mL
# [13] = equivalent molar concentration (1×)
compound,measurement,setting,value
"CC(C)C(=O)C(=O)[O-].[Na+] [keto Val, α-Ketoisovaleric acid sodium salt]",higher solubility when compared to Val,[1]; in water,6 ×
same,Solubility 25° C. in g/kg (corresponding keto acid),[1],362 g/kg
same,NH3 concentration,[2]; [11],lower
same,VCD compared to positive control,[2]; [11],similar
same,titer compared to positive control,[2]; [11],similar
"CC(C)C[C@H](N)C(=O)[O-].[Na+] [Leu sodium salt, reference compound]",maximum solubilities obtained in water,[1],86.0 g/kg
"CCC(C)C(=O)C(=O)[O-].[Na+] (stereo not drawn) [keto Ile, 3-Methyl-2-oxopentanoic acid sodium salt]",Solubility 25° C. in g/kg (corresponding keto acid),[1],480 g/kg
same,times more soluble than the amino acid,[3],at least 6 times
same,solubility at 10 min,[3],≥ 635 mM
same,decrease of AUC (change in color) vs control,"[4]; 4° C., light exposed",68%
same,decrease of AUC (change in color) vs control,"[4]; 4° C., light protected",33%
same,decrease of AUC (change in color) vs control,"[4]; RT, light exposed",38%
same,decrease of AUC (change in color) vs control,"[4]; RT, light protected",no decrease
same,less ammonia produced compared to control,[5]; light exposed,24%
same,less ammonia produced compared to control,[5]; light protected,21%
same,reduced ammonia level compared to control,[5]; light exposed,25%
same,reduced ammonia level compared to control,[5]; light protected,28%
same,amount of NH3 produced compared to control,[6],significantly reduced
same,allo-Ile peak in spent medium,[6]; Ile replaced with keto Ile,increased with time
same,concentration of Ile in the spent medium vs positive control,[6]; Ile replaced with keto Ile,significantly lower
same,IgG vs control,[7]; [12],slightly impaired
same,growth / performance vs control,[7]; [12],slightly impaired
same,initial keto acid concentration detected in form of the amino acid,[7]; spent medium,21%
same,initial keto Ile concentration detected in the form of allo-Ile,"[7]; spent medium, up to day 10",35%
"CC[C@H](C)[C@H](N)C(=O)O [Isoleucine, reference compound]",Solubility (amino acid),[1],32.4 g/kg
same,solubility at 10 min,[3],~105 mM
"CC(C)[C@H](N)C(=O)O [Valine, reference compound]",Solubility (amino acid),[1],58.5 g/kg
"N[C@@H](Cc1ccccc1)C(=O)O [Phenylalanine, reference compound]",Solubility (amino acid),[1],26.8 g/kg
"CSCC[C@H](N)C(=O)O [Methionine, reference compound]",Solubility (amino acid),[1],52.9 g/kg
"O=C([O-])C(=O)Cc1ccccc1.[Na+] [phenylpyruvate, Phenylpyruvic acid sodium salt]",Solubility 25° C. in g/kg (corresponding keto acid),[1],72 g/kg
same,Phe in the spent medium vs control,[2]; 2× the molar equivalent of Phe,very similar amount
same,VCD vs control,[2]; 2× the molar equivalent of Phe,restore
same,titer vs control,[2]; 2× the molar equivalent of Phe,restore
same,Phe in the supernatant compared to negative control,[2]; [13],more Phe
same,final reduction of titer,[2]; [13],20%
same,VCD vs control,"[2]; equivalent molar concentration (1×), after day 5",significant lower VCD
"CC(C)C[C@H](N)C(=O)O [Leucine, reference compound]",maximum solubilities obtained in water,[1],22.1 g/kg
same,Solubility (amino acid),[1],22.1 g/kg
same,solubility at 10 min,[3],~90 mM
"CC(C)CC(=O)C(=O)[O-].[Na+] [keto Leu, 4-Methyl-2-oxopentanoic acid sodium salt]",maximum solubilities obtained in water,[1],313.7 g/kg
same,Solubility 25° C. in g/kg (corresponding keto acid),[1],313.7 g/kg
same,times more soluble than the amino acid,[3],2.6 times
same,solubility at 10 min,[3],240 mM
same,decrease of AUC (change in color) vs control,"[4]; 4° C., light exposed",8%
same,decrease of AUC (change in color) vs control,"[4]; 4° C., light protected",27%
same,decrease of AUC (change in color) vs control,"[4]; RT, light exposed",37%
same,decrease of AUC (change in color) vs control,"[4]; RT, light protected",31%
same,amount and color intensity of precipitate vs control,"[8]; RT light exposed, days after D70",lower
same,precipitation,[8]; RT light protected,no precipitation
same,less ammonia produced compared to control,[5]; light exposed,19%
same,less ammonia produced compared to control,[5]; light protected,10%
same,reduced ammonia level compared to control,[5]; light exposed,5%
same,reduced ammonia level compared to control,[5]; light protected,15%
same,amount of NH3 produced compared to control,[6],significantly reduced
same,concentration of Leu in the spent medium vs positive control,[6]; Leu replaced with keto Leu,slightly lower
same,IgG titer compared to control,[9],slightly lower
same,Leu concentration in spent media vs control,[9],nearly similar
same,VCD compared to control,[9],lower VCD
same,overall specific productivity,[9],slightly increased
same,growth / performance vs control,[7]; [12],comparable
same,initial keto acid concentration detected in form of the amino acid,[7]; spent medium,34%
same,keto Leu share at which highest VCD was observed,[10]; seeding 0.6.10^6 and 0.3.10^6 cells/mL,50%
same,titer between ratios keto Leu/Leu,[10]; seeding at 0.3 and 1.10^6 cells/mL,no significant difference
same,IgG concentration between ratios keto Leu/Leu,[10]; seeding at 0.6.10^6 cells/mL,slight trend
same,keto Leu exchange at which maximum VCD was observed,[10]; seeding density 1.10^6 cells/mL,100%
CSCCC(=O)C(=O)O [Alpha keto gamma methylthiobutyric acid sodium salt],Solubility 25° C. in g/kg (corresponding keto acid),[1],>500 g/kg
